Laboratory results as given in ChEMBL document CHEMBL4376867 (J Med Chem, 2020).

Assays:
[1] = biological target: T1, Inhibitor of nuclear factor kappa-B kinase subunit epsilon (Homo sapiens, UniProt Q14164); experiment: (§1) Inhibition of recombinant full length human C-terminal GST-tagged IKKepsilon expressed in baculovirus expression system using biotin-labelled Ahx-GDEDFSSFAEPG peptide as substrate preincubated with enzyme for 15 mins followed by substrate addition and further incubated for 30 mins in presence of 10 uM of ATP by TR-FRET assay
T1 sequence (Q14164 whole entry): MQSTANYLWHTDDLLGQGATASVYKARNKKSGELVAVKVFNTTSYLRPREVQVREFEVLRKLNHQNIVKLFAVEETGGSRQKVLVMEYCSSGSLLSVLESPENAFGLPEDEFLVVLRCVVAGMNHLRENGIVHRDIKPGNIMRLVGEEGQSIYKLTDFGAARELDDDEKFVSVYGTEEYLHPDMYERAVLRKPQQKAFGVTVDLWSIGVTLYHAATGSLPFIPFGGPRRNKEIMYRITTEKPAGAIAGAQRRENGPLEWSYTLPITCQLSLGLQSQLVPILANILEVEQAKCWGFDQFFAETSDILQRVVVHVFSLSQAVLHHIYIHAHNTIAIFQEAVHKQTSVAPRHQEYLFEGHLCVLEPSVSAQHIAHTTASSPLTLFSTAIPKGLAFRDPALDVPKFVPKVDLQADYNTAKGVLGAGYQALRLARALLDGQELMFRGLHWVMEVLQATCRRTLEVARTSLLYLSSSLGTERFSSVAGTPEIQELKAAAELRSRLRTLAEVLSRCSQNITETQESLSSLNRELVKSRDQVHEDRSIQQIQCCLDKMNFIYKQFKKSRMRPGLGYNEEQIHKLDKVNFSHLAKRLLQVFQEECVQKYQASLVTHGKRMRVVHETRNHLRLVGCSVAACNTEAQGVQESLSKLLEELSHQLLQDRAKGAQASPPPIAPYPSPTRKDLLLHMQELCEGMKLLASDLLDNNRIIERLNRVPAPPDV

[2] = Apparent permeability of compound across basal to apical membrane in human Caco2 cells at 2 uM in DMSO after 2 hrs by LC-MS/MS analysis; type: ADME, cell-based; settings: Caco-2
IKK epsilon/TBK1 = biological target: T2, IKK epsilon/TBK1 (Homo sapiens, UniProt Q14164+Q9UHD2); experiment: Inhibition of IKKepsilon/TBK1 in human MDB-MB-231 cells transduced with lentiviral vector expressing human IRF3 assessed as decrease in poly(I:C)-stimulated IRF3 phosphorylation at S385/386 residues preincubated for 1 hr followed by poly(I:C) addition and measured after 1 hr; type: cell-based
T2 sequence (Q14164 whole entry): T1 sequence (Q14164 whole entry)
T2 sequence (Q9UHD2 whole entry): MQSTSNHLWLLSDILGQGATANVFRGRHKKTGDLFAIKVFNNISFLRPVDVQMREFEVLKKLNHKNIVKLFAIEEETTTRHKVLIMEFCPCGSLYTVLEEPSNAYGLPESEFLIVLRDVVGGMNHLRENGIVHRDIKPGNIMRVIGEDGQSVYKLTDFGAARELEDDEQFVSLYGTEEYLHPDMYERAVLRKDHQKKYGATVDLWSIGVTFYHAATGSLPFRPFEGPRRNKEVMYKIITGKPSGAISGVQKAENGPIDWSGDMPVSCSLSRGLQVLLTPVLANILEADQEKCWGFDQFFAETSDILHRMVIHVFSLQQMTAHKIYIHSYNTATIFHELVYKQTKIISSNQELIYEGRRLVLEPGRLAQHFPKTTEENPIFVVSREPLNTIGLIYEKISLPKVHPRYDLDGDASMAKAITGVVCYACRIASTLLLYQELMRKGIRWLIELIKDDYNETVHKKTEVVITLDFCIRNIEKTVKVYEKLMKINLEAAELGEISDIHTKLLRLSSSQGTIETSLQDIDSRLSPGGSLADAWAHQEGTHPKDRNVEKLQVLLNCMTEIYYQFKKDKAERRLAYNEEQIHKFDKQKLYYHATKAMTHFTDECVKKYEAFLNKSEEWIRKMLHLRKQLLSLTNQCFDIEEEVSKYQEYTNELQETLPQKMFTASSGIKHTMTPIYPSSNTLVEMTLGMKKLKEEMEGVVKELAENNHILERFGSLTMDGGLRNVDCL

SK-MEL-2 = experiment: Antiproliferative activity against human SK-MEL-2 cells harboring NRAS/TP53 mutation assessed as reduction in cell viability after 96 hrs by CellTiter-Glo luminescence assay; type: functional, cell-based; settings: SK-MEL-2, 96 h
[3] = Apparent permeability of compound across apical to basal membrane in human Caco2 cells at 2 uM in DMSO after 2 hrs by LC-MS/MS analysis; type: ADME, cell-based; settings: Caco-2
CDK9/cyclin T1 = CDK9/cyclin T1 (Homo sapiens, UniProt P50750); experiment: as §1, with “His-tagged CDK9/CyclinT1” for “C-terminal GST-tagged IKKepsilon”, “Ttds-YISPLKSPYKISEG” for “Ahx-GDEDFSSFAEPG”, “25” for “30”, “mins” for “mins in”
Sequence of CDK9/cyclin T1 (O60563 whole entry, the tested form may be a part): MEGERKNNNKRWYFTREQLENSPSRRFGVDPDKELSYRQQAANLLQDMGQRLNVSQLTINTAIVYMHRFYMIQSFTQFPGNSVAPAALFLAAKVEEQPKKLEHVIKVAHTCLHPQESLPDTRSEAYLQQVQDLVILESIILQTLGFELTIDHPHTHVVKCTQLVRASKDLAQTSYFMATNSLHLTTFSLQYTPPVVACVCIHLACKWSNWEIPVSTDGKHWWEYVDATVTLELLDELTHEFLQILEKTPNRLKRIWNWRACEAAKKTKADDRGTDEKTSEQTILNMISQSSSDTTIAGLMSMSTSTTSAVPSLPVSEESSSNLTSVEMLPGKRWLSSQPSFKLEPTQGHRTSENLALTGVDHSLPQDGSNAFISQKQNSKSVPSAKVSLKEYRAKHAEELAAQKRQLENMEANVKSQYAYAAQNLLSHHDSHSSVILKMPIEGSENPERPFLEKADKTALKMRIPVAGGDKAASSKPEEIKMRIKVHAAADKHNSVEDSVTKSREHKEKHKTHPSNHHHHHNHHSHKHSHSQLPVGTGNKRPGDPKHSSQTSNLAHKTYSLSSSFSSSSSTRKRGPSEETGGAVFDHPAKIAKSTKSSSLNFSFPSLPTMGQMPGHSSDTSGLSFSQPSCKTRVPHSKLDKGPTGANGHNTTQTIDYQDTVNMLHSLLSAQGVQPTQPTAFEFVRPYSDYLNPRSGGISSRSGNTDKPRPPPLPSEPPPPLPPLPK
Sequence of CDK9/cyclin T1 (P50750 whole entry, the tested form may be a part): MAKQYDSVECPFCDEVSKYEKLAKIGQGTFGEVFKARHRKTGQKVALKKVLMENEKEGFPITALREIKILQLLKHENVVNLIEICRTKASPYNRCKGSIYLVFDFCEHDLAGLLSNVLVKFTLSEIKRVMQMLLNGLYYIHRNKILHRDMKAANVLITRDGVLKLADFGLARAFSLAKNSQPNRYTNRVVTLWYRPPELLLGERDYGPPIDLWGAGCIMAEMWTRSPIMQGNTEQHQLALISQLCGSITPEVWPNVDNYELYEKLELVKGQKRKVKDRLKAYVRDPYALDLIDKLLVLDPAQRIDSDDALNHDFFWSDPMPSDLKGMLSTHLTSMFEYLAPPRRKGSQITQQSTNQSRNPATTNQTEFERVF

[4] = biological target: T3, Serine/threonine-protein kinase ULK1 (Homo sapiens, UniProt O75385); experiment: Inhibition of wild-type human partial length ULK1 (M1 to T309 residues) expressed in mammalian expression system
T3 sequence (O75385 whole entry): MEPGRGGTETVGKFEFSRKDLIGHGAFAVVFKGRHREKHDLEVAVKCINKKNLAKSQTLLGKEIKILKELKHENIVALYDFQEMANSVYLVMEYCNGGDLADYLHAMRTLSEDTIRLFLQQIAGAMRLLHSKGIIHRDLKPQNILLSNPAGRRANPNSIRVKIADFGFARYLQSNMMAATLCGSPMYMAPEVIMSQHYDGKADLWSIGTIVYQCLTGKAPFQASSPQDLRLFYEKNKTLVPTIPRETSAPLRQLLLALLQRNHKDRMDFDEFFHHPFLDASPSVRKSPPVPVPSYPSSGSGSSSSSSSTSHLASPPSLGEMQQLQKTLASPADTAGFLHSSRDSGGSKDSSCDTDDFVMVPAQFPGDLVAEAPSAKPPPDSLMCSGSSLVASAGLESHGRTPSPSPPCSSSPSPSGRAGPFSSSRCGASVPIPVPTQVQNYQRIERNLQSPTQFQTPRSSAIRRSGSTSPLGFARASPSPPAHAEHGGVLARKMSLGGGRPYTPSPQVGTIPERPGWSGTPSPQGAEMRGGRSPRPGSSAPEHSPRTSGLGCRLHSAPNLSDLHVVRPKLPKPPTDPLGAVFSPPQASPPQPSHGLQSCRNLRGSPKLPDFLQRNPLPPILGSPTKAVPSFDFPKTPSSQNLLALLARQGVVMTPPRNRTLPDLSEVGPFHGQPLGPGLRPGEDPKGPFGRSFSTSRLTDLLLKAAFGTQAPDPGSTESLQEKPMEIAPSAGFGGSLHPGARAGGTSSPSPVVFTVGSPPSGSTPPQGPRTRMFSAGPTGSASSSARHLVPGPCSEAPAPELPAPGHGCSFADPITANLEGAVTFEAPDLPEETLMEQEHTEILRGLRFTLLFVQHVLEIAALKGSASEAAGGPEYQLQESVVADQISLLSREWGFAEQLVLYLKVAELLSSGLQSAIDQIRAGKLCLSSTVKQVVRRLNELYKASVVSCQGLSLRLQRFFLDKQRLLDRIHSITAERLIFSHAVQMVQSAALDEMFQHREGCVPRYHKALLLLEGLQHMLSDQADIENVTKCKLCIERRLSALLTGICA

| Compound | IC50 [1] [µM] | Papp B→A at 2 h, 2 µM [2] [nm/s] | IC50 (IKK epsilon/TBK1) [µM] | IC50 (SK-MEL-2) [µM] | Papp A→B at 2 h, 2 µM [3] [nm/s] | IC50 (CDK9/cyclin T1) [µM] | IC50 [4] [µM] |
| --- | --- | --- | --- | --- | --- | --- | --- |
| Cc1noc(-c2ccc3nc(Nc4cc(CN5CCN(C(=O)CC(F)(F)F)CC5)ccn4)[nH]c3c2)n1 | 0.168 | 142 | 2.75 | 2.18 | 42 | 0.455 | – |
| C[C@H](c1ccnc(Nc2nc3ccc(-c4cc(OCC5CC5)ncn4)cc3[nH]2)c1)N1CCN(C(=O)CC(F)(F)F)CC1 | 0.004 | – | 0.066 | 0.47 | – | 16.1 | 0.416 |
| COCc1cc(-c2ccc3nc(Nc4cc([C@@H](C)N5CCN(C(=O)CC(F)(F)F)CC5)ccn4)[nH]c3c2)ncn1 | 0.002 | 218 | – | 0.883 | 14 | 5.11 | 0.368 |
| Cc1cc(-c2ccc3nc(Nc4cc([C@@H](C)N5CCN(C(=O)CC(F)(F)F)CC5)ccn4)[nH]c3c2)ncn1 | 0.004 | – | 0.14 | 0.476 | – | 2.13 | 0.98 |
| C[C@H](c1ccnc(Nc2nc3ccc(-c4cnn(CC5CC5)c4)cc3[nH]2)c1)N1CCN(C(=O)CC(F)(F)F)CC1 | 0.006 | 118 | 0.131 | 0.408 | 16 | > 20 | 0.009 |
| CC(C)Oc1cncnc1-c1ccc2nc(Nc3cc([C@@H](C)N4CCN(C(=O)CC(F)(F)F)CC4)ccn3)[nH]c2c1 | – | – | 0.119 | 3.97 | – | 0.824 | 0.263 |
| O=C(CC(F)(F)F)N1CCN(Cc2ccnc(Nc3nc4ccc(-c5cnn(CC6CC6)c5)cc4[nH]3)c2)CC1 | 0.007 | 125 | 0.368 | 0.221 | 32 | 9.19 | 0.028 |
| CNc1cc(-c2ccc3nc(Nc4cc(CN5CCN(C(=O)CC(F)(F)F)CC5)ccn4)[nH]c3c2)ncn1 | 0.01 | – | 1.99 | 0.245 | – | – | 1.64 |
| CN(C)c1cc(-c2ccc3nc(Nc4cc(CN5CCN(C(=O)CC(F)(F)F)CC5)ccn4)[nH]c3c2)ncn1 | 0.01 | – | 0.213 | 0.246 | – | 14.4 | > 10 |
| C[C@H](c1ccnc(Nc2nc3ccc(-c4cc(N(C)C)ncn4)cc3[nH]2)c1)N1CCN(C(=O)CC(F)(F)F)CC1 [BAY-985] | 0.002 | 146 to 147 | 0.074 | 0.9 | 8.9 to 9 | – | 7.93 |
| Cc1noc(-c2ccc3nc(Nc4cc([C@@H](C)N5CCN(C(=O)CC(F)(F)F)CC5)ccn4)[nH]c3c2)n1 | 0.037 | 86 | 1.21 | 3.53 | 108 | 1.52 | – |
